Literature values in patent US20200093804A1, “PHARMACEUTICAL COMPOSITION OF EVEROLIMUS” (INTAS PHARMACEUTICALS LTD., priority 2017, published 2020).

Details: from literature

For `CO[C@H]1C[C@@H]2CC[C@@H](C)[C@@](O)(O2)C(=O)C(=O)N2CCCC[C@H]2C(=O)O[C@H]([C@H](C)C[C@@H]2CC[C@@H](OCCO)[C@H](OC)C2)CC(=O)[C@H](C)/C=C(\C)[C@@H](O)[C@@H](OC)C(=O)[C@H](C)C[C@H](C)/C=C/C=C/C=C/1C` [Everolimus, (1R,9S,12S,15R,16E,18R,19R,21R,23S,24E,26E,28E,30S,32S,35R)-1,18dihydroxy-12-{(1R)-2-[(1S,3R,4R)-4-(2-hydroxyethoxy)-3-methoxycyclohexyl]-1-methylethyl}-19,30-dimethoxy15,17,21,23,29,35-hexamethyl-11, 36-dioxa-4-aza-tricyclo[30.3.1.04,9]hexatriaconta-16,24,26,28-tetraene-2,3,10, 14,20pentaone], the solubility is listed as “poor” and the stability is listed as “poor”.
